In US20080119491A1, “AMIDINOHETEROCYCLES AS MODULATORS OF INDOLEAMINE 2,3-DIOXYGENASE” (INCYTE CORPORATION, priority 2006, published 2008):

These compounds were tested against T1, Human indoleamine 2,3-dioxygenasae (IDO) (Homo sapiens, UniProt P14902) (assay: Human indoleamine 2,3-dioxygenase (IDO) enzyme assay). Details: 95 nM IDO, 2 mM D-Trp, pH 6.5, room temperature.
T1 construct: His tag (N); made in house; host or cells: E. coli
Format: biochemical
Method: Human indoleamine 2,3-dioxygenasae (IDO) with an N-terminal His tag was expressed in E. coli and purified to homogeneity. IDO catalyzes the oxidative cleavage of the pyrrole ring of the indole nucleus of tryptophan to yield N′-formylkynurenine. The assays were performed at room temperature as described in the literature using 95 nM IDO and 2 mM D-Trp in the presence of 20 mM ascorbate, 5 μM methylene blue and 0.2 mg/mL catalase in 50 mM potassium phosphate buffer (pH 6.5). The initial reaction rates were recorded by continuously following the absorbance increase at 321 nm due to the formation of N′-formlylkynurenine. See: Sono, M., Taniguchi, T., Watanabe, Y., and Hayaishi, O. (1980) J. Biol. Chem. 255, 1339-1345. […] The symbol “+” indicates […]. The symbol “+++” indicates IC50>[…]

T1 sequence (P14902 whole entry): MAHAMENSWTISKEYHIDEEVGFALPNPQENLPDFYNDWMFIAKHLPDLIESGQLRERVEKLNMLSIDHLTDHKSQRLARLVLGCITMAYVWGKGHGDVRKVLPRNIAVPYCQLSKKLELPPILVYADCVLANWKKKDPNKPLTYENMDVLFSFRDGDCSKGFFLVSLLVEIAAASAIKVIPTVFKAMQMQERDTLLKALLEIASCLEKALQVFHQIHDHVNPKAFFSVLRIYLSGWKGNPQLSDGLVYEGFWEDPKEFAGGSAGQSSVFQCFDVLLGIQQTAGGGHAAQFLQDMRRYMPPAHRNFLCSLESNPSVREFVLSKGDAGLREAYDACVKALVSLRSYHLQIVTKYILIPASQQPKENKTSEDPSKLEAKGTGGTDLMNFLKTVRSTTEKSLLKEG

IC50, > 10 µM:
Cc1ccc(Cl)cc1CNC(=NO)c1cccnn1 [Example 13, N-(5-chloro-2-methylbenzyl)-N′-hydroxypyridazine-3-carboximidamide]
ON=C(Nc1cccc(C(F)(F)F)c1)c1cnccn1 [Example 7, N′-hydroxy-N-[3-(trifluoromethyl)-phenyl]pyrazine-2-carbox-imidamide]
ON=C(Nc1ccc(F)c(Cl)c1)c1cccc(Oc2ccccc2)c1 [Example 10, N-(3-chloro-4-fluorophenyl)-N′-hydroxy-3-phenoxybenzene-carboximidamide]
Nc1nccnc1C(=NO)Nc1ccc(F)c(Cl)c1 [Example 6, 3-amino-N′-hydroxy-N-[3-chloro,4-fluorophenyl]pyrazine-2-carbox-imidamide]
Nc1nccnc1C(=NO)Nc1cccc(C(F)(F)F)c1 [Example 2, 3-Amino-N′-hydroxy-N-[3-(trifluoromethyl)phenyl]pyrazine-2-carboximidamide]
COc1ccc(CNc2nccnc2C(=NO)Nc2cccc(C(F)(F)F)c2)cc1 [Example 1, NA-Hydroxy-3-[(4-methoxybenzyl)amino]-N-[3-(trifluoromethyl)phenyl]-pyrazine-2-carboximidamide]
ON=C(Nc1cccc(C(F)(F)F)c1)c1cccnc1 [Example 8, N′-hydroxy-N-[3-(trifluoromethyl)-phenyl]pyridine-3-carbox-imidamide]
Nc1nccnc1C(=NO)Nc1ccc(F)c(C(F)(F)F)c1 [Example 4, 3-amino-N′-hydroxy-N-[3-(tri-fluoromethyl), 4-fluorophenyl]-pyrazine-2-carboximidamide]
COc1ccc(CNc2nccnc2C(=NO)Nc2ccc(F)c(Cl)c2)cc1 [Example 5]
